This is an account of results in US7105492B2, “Camptothecin derivatives having antitumor activity” (priority 1999, dated 2006).

Broadly, the IC50 is the midpoint of a concentration-inhibition curve. Low readings indicate higher potency, high ones lower potency.

Series [1] deals with NCI H460 lung non-small cell carcinoma. The series is described as follows: Antiproliferative activity test (cytotoxic activity) on NCI H460 cells. It is filed as cell-based, human. As to conditions: H-460. Here is the method: Cytotoxic activity of the compounds of the present invention was assayed in cell systems of human tumour cells, using the antiproliferative activity test as a method of evaluation of the cytotoxic potential.
The cell line used is a lung non-small cell carcinoma that belongs to non-small cells hystotype named NCI H460.

Series [2] in a line: Water solubility (remark in Table 4). It is filed as physicochemical.
Series [3] has as its system MKN-28 human gastric carcinoma. The series is described as follows: ST 1737 per os in athymic nude mice bearing s.c. MKN-28 human gastric carcinoma. As to conditions: q4d × 4; for TVI % (tumor volume inhibition % in treated over control tumors): at 11–12 day after last treatment. Type of series: in vivo.

For the compound `CC[C@@]1(O)C(=O)OCc2c1cc1n(c2=O)Cc2c-1nc1ccccc1c2C=Nc1ccccc1SSc1ccccc1N` [ST 1737, 7–2-(2-aminophenyldithio)phenyliminomethylcamptothecin], half-maximal inhibition in series [1] (IC50) required 17 nM. Besides, the “water solubility (in words)” value in series [2] is “(water soluble)”. Besides, in series [3] (4 mg/kg per os), the “Tox (Dead/treated mice)” value is reported as 0/4 and the “TVI % (tumor volume inhibition % in treated over control tumors)” value worked out at 69%. In addition, in series [3] (7 mg/kg per os), the “Tox (Dead/treated mice)” value is given as 0/4 and the “TVI % (tumor volume inhibition % in treated over control tumors)” value was 56%. Further, in series [3] (12 mg/kg per os), the “BWL % (body weight loss % induced by drug treatment)” value is 4%, the “Tox (Dead/treated mice)” value is 0/4 and the “TVI % (tumor volume inhibition % in treated over control tumors)” value was 68%.
